Assay results as given in patent US12421282B2, “Compositions and methods for the treatment of metabolic and liver disorders” (priority 2021, dated 2025).
Like-named read-outs stand apart in the source and are kept apart here. *1 amine or outer side, *2 acyl side, *3 side chain or, on linkers, in order; H or OH if unused. Where a SMILES comes first, the peptide text is derived from it. Side-chain parts run from the residue outwards. [ ]: non-standard residue; d: D form. The star is where a group is joined. Nonadecanoyl(19-PO3H2) = O=C(CCCCCCCCCCCCCCCCCCP(=O)(O)O)*; γGlu = O=C(O)[C@H](CCC(=O)[*:2])N[*:1]; AEEA = NCCOCCOCC(=O)O; Aib = CC(C)(N)C(=O)O

Experiments:
[1] = parameters: species or system cynomolgus monkeys; details: cynomolgus monkey, in vivo
Procedure: Subcutaneous (SC) dosing of the compounds in a vehicle of 0.1% bovine serum albumin in phosphate buffered saline solution was performed with male cynomolgus monkeys. […] Samples were obtained at 1, 4, 8, 12, 24, 48, 72, 96, 120, 168, 192, 240 and 336 hours after the single dose was administered.

[2] = biological target: human recombinant GLP-1 receptor (Homo sapiens, UniProt P43220); test: TagLite binding assay, GLP-1 receptor, without and with 2% HSA
human recombinant GLP-1 receptor, sequence (P43220 24-463): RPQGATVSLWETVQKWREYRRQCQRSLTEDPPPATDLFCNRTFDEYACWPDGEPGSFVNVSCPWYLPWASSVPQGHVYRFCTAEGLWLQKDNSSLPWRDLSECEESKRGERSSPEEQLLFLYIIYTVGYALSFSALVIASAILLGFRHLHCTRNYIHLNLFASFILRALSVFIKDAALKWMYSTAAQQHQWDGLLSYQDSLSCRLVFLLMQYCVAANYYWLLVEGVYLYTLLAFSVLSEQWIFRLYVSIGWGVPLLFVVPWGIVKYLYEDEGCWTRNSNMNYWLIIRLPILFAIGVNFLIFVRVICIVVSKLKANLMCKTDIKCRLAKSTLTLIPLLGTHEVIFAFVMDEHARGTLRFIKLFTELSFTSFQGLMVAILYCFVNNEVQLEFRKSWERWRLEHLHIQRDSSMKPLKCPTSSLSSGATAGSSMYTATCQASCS
From the text: (§1) Binding data for Compounds 15-25, for two human recombinant G protein coupled receptors, GLP-1 and GIP, was obtained using […]® binding assay and Epics Therapeutics cell lines. The binding assay was repeated in the presence of 2% human serum albumin (HSA). Compounds 16, 21, and 22 have an HSA ratio for the GLP-1 receptor of 7.1, 7.6, and 7.8, respectively. Compounds 15, 18, and 23 have an HSA ratio for the GIP receptor of 7.3, 4.3, and 6.4, respectively. A lower HSA ratio indicates greater binding affinity for the receptor than for albumin when compared to a compound with a greater HSA ratio.

[3] = biological target: T1, human recombinant GIP receptor (Homo sapiens, UniProt P48546); test: TagLite binding assay, GIP receptor, without and with 2% HSA
T1 sequence (P48546 22-466): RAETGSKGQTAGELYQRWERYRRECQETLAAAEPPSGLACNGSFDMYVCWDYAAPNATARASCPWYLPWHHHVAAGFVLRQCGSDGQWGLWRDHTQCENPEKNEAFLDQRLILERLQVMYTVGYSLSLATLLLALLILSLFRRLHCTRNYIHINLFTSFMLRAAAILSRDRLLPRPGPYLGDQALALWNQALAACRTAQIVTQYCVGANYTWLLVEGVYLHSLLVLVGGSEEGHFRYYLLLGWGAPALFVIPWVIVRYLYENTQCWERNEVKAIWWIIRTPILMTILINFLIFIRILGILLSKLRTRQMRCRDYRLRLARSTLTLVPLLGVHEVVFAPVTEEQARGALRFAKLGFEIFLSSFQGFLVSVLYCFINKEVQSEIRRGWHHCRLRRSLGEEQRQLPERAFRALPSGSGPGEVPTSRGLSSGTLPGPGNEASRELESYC
From the text: as §1

SMILES | AUC(0-inf) [1] [µg·h/mL] | AUC(0-t) [1] [µg·h/mL] | Cmax [1] [ng/mL] | Tmax [1] [h] | half-life [1] [h] | IC50 ([2]; 2% human serum albumin, read-out: GLP-1 receptor IC50 2% HSA) [nM] | IC50 ([2]; no HSA, read-out: GLP-1 receptor IC50 No HSA) [nM] | IC50 ([3]; 2% human serum albumin, read-out: GIP receptor IC50 2% HSA) [nM] | IC50 ([3]; no HSA, read-out: GIP receptor IC50 No HSA) [nM] | AUC(0-inf) ([1]; sc, 0.2 mg/kg) [µg·h/mL] | AUC(0-t) ([1]; sc, 0.2 mg/kg) [µg·h/mL] | Cmax ([1]; sc, 0.2 mg/kg) [ng/mL] | Tmax ([1]; sc, 0.2 mg/kg) [h] | half-life ([1]; sc, 0.2 mg/kg) [h] | mean half life as compared to tirzepatide (in words) ([1]; sc, 0.2 mg/kg) | mean half life longer compared to tirzepatide ([1]; sc, 0.2 mg/kg)
CC[C@H](C)[C@H](NC(=O)[C@H](CC(C)C)NC(=O)[C@H](Cc1c[nH]c2ccccc12)NC(=O)[C@H](CCC(N)=O)NC(=O)[C@@H](NC(=O)[C@H](Cc1ccccc1)NC(=O)[C@H](C)NC(=O)[C@H](CCCCNC(=O)COCCOCCNC(=O)COCCOCCNC(=O)CC[C@H](NC(=O)CCCCCCCCCCCCCCCCCCP(=O)(O)O)C(=O)O)NC(=O)[C@H](CCC(N)=O)NC(=O)[C@H](C)NC(=O)[C@@H](NC(=O)[C@H](CCCCN)NC(=O)[C@H](CC(=O)O)NC(=O)[C@H](CC(C)C)NC(=O)C(C)(C)NC(=O)[C@@H](NC(=O)[C@H](CO)NC(=O)[C@H](Cc1ccc(O)cc1)NC(=O)[C@H](CC(=O)O)NC(=O)[C@H](CO)NC(=O)[C@@H](NC(=O)[C@H](Cc1ccccc1)NC(=O)[C@@H](NC(=O)CNC(=O)[C@H](CCC(=O)O)NC(=O)C(C)(C)NC(=O)[C@@H](N)Cc1ccc(O)cc1)[C@@H](C)O)[C@@H](C)O)[C@@H](C)CC)C(C)C)C(C)C)C(=O)N[C@@H](CCCNC(=N)N)C(=O)NCC(=O)NCC(=O)N1CCC[C@H]1C(=O)N[C@@H](CO)C(=O)N[C@@H](CO)C(=O)NCC(=O)N[C@@H](C)C(=O)N1CCC[C@H]1C(=O)N1CCC[C@H]1C(=O)N1CCC[C@H]1C(=O)N[C@@H](CO)C(N)=O [Compound 25] (H-Y[Aib]EGTFTSDYSI[Aib]LDKVAQK([AEEA-AEEA-γGlu-Nonadecanoyl(19-PO3H2)])AFVQWLIRGGPSSGAPPPS-NH2) | 287 | 272 | 1570 | 24 | 117 |  |  |  |  |  |  |  |  |  |  | 
CC[C@H](C)[C@H](NC(=O)[C@H](CC(C)C)NC(=O)[C@H](Cc1c[nH]c2ccccc12)NC(=O)[C@H](CCC(N)=O)NC(=O)[C@@H](NC(=O)[C@H](Cc1ccccc1)NC(=O)[C@H](C)NC(=O)[C@H](CCCCNC(=O)COCCOCCNC(=O)COCCOCCNC(=O)CC[C@H](NC(=O)CCCCCCCCCCCCCCCCCCP(=O)(O)O)C(=O)O)NC(=O)[C@H](CCC(N)=O)NC(=O)[C@H](C)NC(=O)[C@@H](NC(=O)[C@H](CCCCN)NC(=O)[C@H](CC(=O)O)NC(=O)[C@H](CC(C)C)NC(=O)C(C)(C)NC(=O)[C@@H](NC(=O)[C@H](CO)NC(=O)[C@H](Cc1ccc(O)cc1)NC(=O)[C@H](CC(=O)O)NC(=O)[C@H](CO)NC(=O)[C@@H](NC(=O)[C@H](Cc1ccccc1)NC(=O)[C@@H](NC(=O)CNC(=O)[C@H](CCC(=O)O)NC(=O)C(C)(C)NC(=O)[C@@H](N)Cc1ccc(O)cc1)[C@@H](C)O)[C@@H](C)O)[C@@H](C)CC)[C@@H](C)O)C(C)C)C(=O)N[C@@H](C)C(=O)NCC(=O)NCC(=O)N1CCC[C@H]1C(=O)N[C@@H](CO)C(=O)N[C@@H](CO)C(=O)NCC(=O)N[C@@H](C)C(=O)N1CCC[C@H]1C(=O)N1CCC[C@H]1C(=O)N1CCC[C@H]1C(=O)N[C@@H](CO)C(N)=O [Compound 23] (H-Y[Aib]EGTFTSDYSI[Aib]LDKTAQK([AEEA-AEEA-γGlu-Nonadecanoyl(19-PO3H2)])AFVQWLIAGGPSSGAPPPS-NH2) |  |  |  |  |  | 3120 | 400 | 5630 | 873 | 574 | 439 | 2940 | 34.7 | 159 | more than twice an long as compared to tirzepatide | at least 50%
CC[C@H](C)[C@H](NC(=O)[C@H](CC(C)C)NC(=O)[C@H](Cc1c[nH]c2ccccc12)NC(=O)[C@H](CC(N)=O)NC(=O)[C@@H](NC(=O)[C@H](Cc1ccccc1)NC(=O)[C@H](C)NC(=O)[C@H](CCC(N)=O)NC(=O)[C@H](CCCCNC(=O)COCCOCCNC(=O)COCCOCCNC(=O)CC[C@H](NC(=O)CCCCCCCCCCCCCCCCCCP(=O)(O)O)C(=O)O)NC(=O)[C@H](C)NC(=O)[C@@H](NC(=O)[C@H](CCCCN)NC(=O)[C@H](CC(=O)O)NC(=O)[C@H](CC(C)C)NC(=O)C(C)(C)NC(=O)[C@@H](NC(=O)[C@H](CO)NC(=O)[C@H](Cc1ccc(O)cc1)NC(=O)[C@H](CC(=O)O)NC(=O)[C@H](CO)NC(=O)[C@@H](NC(=O)[C@H](Cc1ccccc1)NC(=O)[C@@H](NC(=O)CNC(=O)[C@H](CCC(=O)O)NC(=O)C(C)(C)NC(=O)[C@@H](N)Cc1ccc(O)cc1)[C@@H](C)O)[C@@H](C)O)[C@@H](C)CC)[C@@H](C)CC)C(C)C)C(=O)N[C@@H](C)C(=O)NCC(=O)NCC(=O)N1CCC[C@H]1C(=O)N[C@@H](CO)C(=O)N[C@@H](CO)C(=O)NCC(=O)N[C@@H](C)C(=O)N1CCC[C@H]1C(=O)N1CCC[C@H]1C(=O)N1CCC[C@H]1C(=O)N[C@@H](CO)C(N)=O [Compound 22] (H-Y[Aib]EGTFTSDYSI[Aib]LDKIAK([AEEA-AEEA-γGlu-Nonadecanoyl(19-PO3H2)])QAFVNWLIAGGPSSGAPPPS-NH2) |  |  |  |  |  |  |  |  |  | 510 | 417 | 2380 | 33.3 | 137 | more than twice an long as compared to tirzepatide | at least 50%
CC[C@H](C)[C@H](NC(=O)[C@H](CC(C)C)NC(=O)[C@H](Cc1c[nH]c2ccccc12)NC(=O)[C@H](CCC(N)=O)NC(=O)[C@@H](NC(=O)[C@H](Cc1ccccc1)NC(=O)[C@H](C)NC(=O)[C@H](CCCCNC(=O)COCCOCCNC(=O)COCCOCCNC(=O)CC[C@H](NC(=O)CCCCCCCCCCCCCCCCCCP(=O)(O)O)C(=O)O)NC(=O)[C@H](CCC(N)=O)NC(=O)[C@H](C)NC(=O)[C@@H](NC(=O)[C@H](CCCNC(=N)N)NC(=O)[C@H](CC(=O)O)NC(=O)[C@H](CC(C)C)NC(=O)C(C)(C)NC(=O)[C@@H](NC(=O)[C@H](CO)NC(=O)[C@H](Cc1ccc(O)cc1)NC(=O)[C@H](CC(=O)O)NC(=O)[C@H](CO)NC(=O)[C@@H](NC(=O)[C@H](Cc1ccccc1)NC(=O)[C@@H](NC(=O)CNC(=O)[C@H](CCC(=O)O)NC(=O)C(C)(C)NC(=O)[C@@H](N)Cc1ccc(O)cc1)[C@@H](C)O)[C@@H](C)O)[C@@H](C)CC)[C@@H](C)CC)C(C)C)C(=O)N[C@@H](C)C(=O)NCC(=O)NCC(=O)N1CCC[C@H]1C(=O)N[C@@H](CO)C(=O)N[C@@H](CO)C(=O)NCC(=O)N[C@@H](C)C(=O)N1CCC[C@H]1C(=O)N1CCC[C@H]1C(=O)N1CCC[C@H]1C(=O)N[C@@H](CO)C(N)=O [Compound 16] (H-Y[Aib]EGTFTSDYSI[Aib]LDRIAQK([AEEA-AEEA-γGlu-Nonadecanoyl(19-PO3H2)])AFVQWLIAGGPSSGAPPPS-NH2) |  |  |  |  |  |  |  |  |  | 144 | 138 | 1570 | 9.33 | 70.1 |  | 
CC[C@H](C)[C@H](NC(=O)[C@H](CC(C)C)NC(=O)[C@H](Cc1c[nH]c2ccccc12)NC(=O)[C@H](CCC(N)=O)NC(=O)[C@@H](NC(=O)[C@H](Cc1ccccc1)NC(=O)[C@H](C)NC(=O)[C@H](CCCCNC(=O)COCCOCCNC(=O)COCCOCCNC(=O)CC[C@H](NC(=O)CCCCCCCCCCCCCCCCCCC(=O)O)C(=O)O)NC(=O)[C@H](CCC(N)=O)NC(=O)[C@H](C)NC(=O)[C@@H](NC(=O)[C@H](CCCCN)NC(=O)[C@H](CC(=O)O)NC(=O)[C@H](CC(C)C)NC(=O)C(C)(C)NC(=O)[C@@H](NC(=O)[C@H](CO)NC(=O)[C@H](Cc1ccc(O)cc1)NC(=O)[C@H](CC(=O)O)NC(=O)[C@H](CO)NC(=O)[C@@H](NC(=O)[C@H](Cc1ccccc1)NC(=O)[C@@H](NC(=O)CNC(=O)[C@H](CCC(=O)O)NC(=O)C(C)(C)NC(=O)[C@@H](N)Cc1ccc(O)cc1)[C@@H](C)O)[C@@H](C)O)[C@@H](C)CC)[C@@H](C)CC)C(C)C)C(=O)N[C@@H](C)C(=O)NCC(=O)NCC(=O)N1CCC[C@H]1C(=O)N[C@@H](CO)C(=O)N[C@@H](CO)C(=O)NCC(=O)N[C@@H](C)C(=O)N1CCC[C@H]1C(=O)N1CCC[C@H]1C(=O)N1CCC[C@H]1C(=O)N[C@@H](CO)C(N)=O [TRZ, Tirzepatide, reference compound] |  |  |  |  |  |  |  |  |  | 242 | 237 | 2250 | 40 | 57.1 |  | 
